Data taken from ChEMBL document CHEMBL1201862, “PubChem BioAssay data set” (2004).
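48-hour exposure; five concentrations; linearly interpolated endpoints. GI50 = concentration required for 50% inhibition of growth.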 Calls of active or inactive are those of the source. No stated cut-off is given here; in the data, active = GI50 up to about 1.1 µM and inactive = higher.

Key:
Experiment in all cases: NCI-60 cell line screen, 48 h
SK-MEL-5 = test system: SK-MEL-5
SF-268 = test system: SF-268
MCF7 = test system: MCF7
UACC-257 = test system: UACC-257
HL-60 = test system: HL-60
Malme-3M = test system: Malme-3M
HOP-62 = test system: HOP-62
BT-549 = test system: BT-549
MDA-MB-231 = test system: MDA-MB-231
OVCAR-5 = test system: OVCAR-5
OVCAR-3 = test system: OVCAR-3
M14 = test system: M14
HCT-116 = test system: HCT-116
MDA-MB-435 = test system: MDA-MB-435
NCI-H226 = test system: NCI-H226
SK-OV-3 = test system: SK-OV-3
A498 = test system: A498
A549 = test system: A549
OVCAR-8 = test system: OVCAR-8
SK-MEL-28 = test system: SK-MEL-28

SMILES | GI50 (SK-MEL-5) | GI50 (SF-268) | GI50 (MCF7) | GI50 (UACC-257) | GI50 (HL-60) | GI50 (Malme-3M) | GI50 (HOP-62) | GI50 (BT-549) | GI50 (MDA-MB-231) | GI50 (OVCAR-5) | GI50 (OVCAR-3) | GI50 (M14) | GI50 (HCT-116) | GI50 (MDA-MB-435) | GI50 (NCI-H226) | GI50 (SK-OV-3) | GI50 (A498) | GI50 (A549) | GI50 (OVCAR-8) | GI50 (SK-MEL-28)
CCOc1cc2c(cc1O)CC[C@@H]1[C@@H]2CC[C@]2(C)C(OS(=O)OC3CC[C@@H]4[C@H]5CCc6cc(O)c(OCC)cc6[C@@H]5CC[C@@]34C)CC[C@@H]12 (stereo not given in full) | 0.34 µM (active) | 2.44 µM (inactive) | 0.452 µM (active) | 2.24 µM (inactive) | 0.173 µM (active) | 0.168 µM (active) | 0.887 µM (active) | 1.81 µM (inactive) | 4.06 µM (inactive) | 21.4 µM (inactive) | 0.313 µM (active) | 0.592 µM (active) | 0.577 µM (active) | 0.0601 µM (active) | 2.49 µM (inactive) | 1.16 µM (inactive) | 13.7 µM (inactive) | 0.689 µM (active) | 1.38 µM (inactive) | 0.6 µM (active)
C=C1CC[C@H](O)C(C)(C)[C@@H]1CC/C(C)=C/CC/C=C(\C)CC/C=C(\C)CCC=C(C)C | 54 µM (inactive) | > 100 µM (inactive) | 27.6 µM (inactive) | > 100 µM (inactive) | 13.5 µM (inactive) | > 100 µM (inactive) | > 100 µM (inactive) | > 100 µM (inactive) | > 100 µM (inactive) | > 100 µM (inactive) | > 100 µM (inactive) | > 100 µM (inactive) | 43.7 µM (inactive) | > 100 µM (inactive) | 69.2 µM (inactive) | > 100 µM (inactive) | > 100 µM (inactive) | > 100 µM (inactive) | 57.8 µM (inactive) | > 100 µM (inactive)
C=Cc1c(C)c2cc3nc(c4c5[nH]c(cc6nc(cc1[nH]2)C(C)=C6CC)c(C)c5C(=O)C4C(=O)OC)C(CCC(=O)OC)C3C (stereo not given) | > 100 µM (inactive) | > 100 µM (inactive) | > 100 µM (inactive) | > 100 µM (inactive) | > 100 µM (inactive) | > 100 µM (inactive) | > 100 µM (inactive) | > 100 µM (inactive) | > 100 µM (inactive) | > 100 µM (inactive) | > 100 µM (inactive) | > 100 µM (inactive) | > 100 µM (inactive) | > 100 µM (inactive) | > 100 µM (inactive) | > 100 µM (inactive) | > 100 µM (inactive) | > 100 µM (inactive) | > 100 µM (inactive) | > 100 µM (inactive)
CCCc1cn2c(/C=N/NC(=N)N)c(-c3ccc([N+](=O)[O-])cc3)nc2s1 | 5.81 µM (inactive) | 2.16 µM (inactive) | 1.75 µM (inactive) | 1.73 µM (inactive) | 0.45 µM (active) | 2.5 µM (inactive) | 1.77 µM (inactive) | 1.92 µM (inactive) | 1.69 µM (inactive) | 1.71 µM (inactive) | 0.548 µM (active) | 1.93 µM (inactive) | 0.377 µM (active) | 1.63 µM (inactive) | 2 µM (inactive) | 1.79 µM (inactive) | 5.26 µM (inactive) | 1.71 µM (inactive) | 1.9 µM (inactive) | 1.85 µM (inactive)
Cc1ccc(/C=N/n2c(-c3ccc(C)cc3)n[nH]c2=O)cc1 | 38.1 µM (inactive) | > 100 µM (inactive) | > 100 µM (inactive) | > 100 µM (inactive) | > 100 µM (inactive) | 80.5 µM (inactive) | 61.9 µM (inactive) | 90.4 µM (inactive) | 45.8 µM (inactive) | 84.9 µM (inactive) | > 100 µM (inactive) | 68.4 µM (inactive) | 54 µM (inactive) | 47.2 µM (inactive) | > 100 µM (inactive) | 28.7 µM (inactive) | 26.9 µM (inactive) | 41 µM (inactive) | 36.7 µM (inactive) | > 100 µM (inactive)
NC(=O)C1CCCN1Cc1ccc2c(c1)OCO2 (stereo not given) | > 100 µM (inactive) | > 100 µM (inactive) | > 100 µM (inactive) | > 100 µM (inactive) | > 100 µM (inactive) | > 100 µM (inactive) | > 100 µM (inactive) | > 100 µM (inactive) | > 100 µM (inactive) | > 100 µM (inactive) | > 100 µM (inactive) | > 100 µM (inactive) | > 100 µM (inactive) | > 100 µM (inactive) | > 100 µM (inactive) | > 100 µM (inactive) | > 100 µM (inactive) | > 100 µM (inactive) | > 100 µM (inactive) | > 100 µM (inactive)
CC(=O)C(CN1CCOCC1)C(c1ccccc1)c1c(O)c2ccccc2oc1=O (stereo not given) | > 100 µM (inactive) | > 100 µM (inactive) | > 100 µM (inactive) | > 100 µM (inactive) | 41.3 µM (inactive) | 80.9 µM (inactive) | > 100 µM (inactive) | > 100 µM (inactive) | 83.9 µM (inactive) | > 100 µM (inactive) | > 100 µM (inactive) | > 100 µM (inactive) | > 100 µM (inactive) | > 100 µM (inactive) | > 100 µM (inactive) | > 100 µM (inactive) | > 100 µM (inactive) | > 100 µM (inactive) | > 100 µM (inactive) | > 100 µM (inactive)
CNC(=O)c1cc2nc3ccccc3c(=O)n2c2ccccc12 | > 10 µM (inactive) | > 10 µM (inactive) | > 10 µM (inactive) | > 10 µM (inactive) | > 10 µM (inactive) | > 10 µM (inactive) | > 10 µM (inactive) | > 10 µM (inactive) | > 10 µM (inactive) | > 10 µM (inactive) | > 10 µM (inactive) | > 10 µM (inactive) | > 10 µM (inactive) | > 10 µM (inactive) | > 10 µM (inactive) | > 10 µM (inactive) | > 10 µM (inactive) | > 10 µM (inactive) | > 10 µM (inactive) | > 10 µM (inactive)
Cc1ccc(-c2cc(N)n(-c3nc4c(c(=O)n(C)c(=O)n4C)n3C)n2)cc1 | 32.4 µM (inactive) | 43.7 µM (inactive) | > 100 µM (inactive) | > 100 µM (inactive) | > 100 µM (inactive) | 45.6 µM (inactive) | 21.7 µM (inactive) | > 100 µM (inactive) | > 100 µM (inactive) | > 100 µM (inactive) | > 100 µM (inactive) | > 100 µM (inactive) | > 100 µM (inactive) | > 100 µM (inactive) | 86.1 µM (inactive) | 41 µM (inactive) | > 100 µM (inactive) | > 100 µM (inactive) | > 100 µM (inactive) | 23.1 µM (inactive)
CC(C)=CCN1CC(C)C(=O)Nc2cc(Cl)ccc21 (stereo not given) | 13.6 µM (inactive) | 35.2 µM (inactive) | 18.7 µM (inactive) | 13.3 µM (inactive) | 47.8 µM (inactive) | 25.1 µM (inactive) | 26.6 µM (inactive) | 18.7 µM (inactive) | 22 µM (inactive) | 34 µM (inactive) | 15.1 µM (inactive) | 23.2 µM (inactive) | 16.2 µM (inactive) | 23.4 µM (inactive) | 15.7 µM (inactive) | 24.8 µM (inactive) | 33.3 µM (inactive) | 30.2 µM (inactive) | 29.7 µM (inactive) | 43.3 µM (inactive)
Nc1ncc(Cl)c(NCC2(CO)CC(CCc3ccccc3)C2)n1 (stereo not given) | 0.38 µM (active) | > 100 µM (inactive) | 0.438 µM (active) | > 100 µM (inactive) | 1.13 µM (inactive) | > 100 µM (inactive) | > 100 µM (inactive) | > 100 µM (inactive) | > 100 µM (inactive) | > 100 µM (inactive) | > 100 µM (inactive) | > 100 µM (inactive) | 3.7 µM (inactive) | > 100 µM (inactive) | > 100 µM (inactive) | > 100 µM (inactive) | > 100 µM (inactive) | > 21.1 µM (inactive) | 44 µM (inactive) | > 100 µM (inactive)
CC1(C)C2CCC1(C)C(NC(=O)CCN1CCOCC1)C2 (stereo not given) | > 100 µM (inactive) | > 100 µM (inactive) | > 100 µM (inactive) | > 100 µM (inactive) | > 100 µM (inactive) | > 100 µM (inactive) | > 100 µM (inactive) | > 100 µM (inactive) | > 100 µM (inactive) | > 100 µM (inactive) | > 100 µM (inactive) | > 100 µM (inactive) | > 100 µM (inactive) | > 100 µM (inactive) | > 100 µM (inactive) | > 100 µM (inactive) | > 100 µM (inactive) | > 100 µM (inactive) | > 100 µM (inactive) | > 100 µM (inactive)
C/C(=N\NC(N)=S)c1sc(-n2nc(-c3ccccc3)cc2-c2ccccc2)nc1C | 76.4 µM (inactive) | > 100 µM (inactive) | 51.6 µM (inactive) | 85.5 µM (inactive) | 54.6 µM (inactive) | > 100 µM (inactive) | > 100 µM (inactive) | > 100 µM (inactive) | 43.3 µM (inactive) | > 100 µM (inactive) | 98.2 µM (inactive) | > 100 µM (inactive) | 55.8 µM (inactive) | > 100 µM (inactive) | > 100 µM (inactive) | 62.1 µM (inactive) | > 100 µM (inactive) | > 100 µM (inactive) | > 100 µM (inactive) | > 100 µM (inactive)
